Laboratory results reported in patent publication US20220194938A1, “NOVEL COMPOUNDS AND PHARMACEUTICAL COMPOSITIONS THEREOF FOR THE TREATMENT OF INFLAMMATORY DISORDERS” (GALAPAGOS NV, priority 2019, published 2022).

Experiments:
human IRAK-4 = biological target: T1, human IRAK-4 (Homo sapiens, UniProt Q9NWZ3); assay: Phosphorylation IC50 determination for human IRAK-4 (ADP-Glo kinase assay); settings: human IRAK-4, RIP140 substrate, Km ATP; read-out: IRAK4 ADPglo biochemical assay IC50
T1 construct: purchased Carna Biosciences 09 145
T1 sequence (Q9NWZ3 1-460): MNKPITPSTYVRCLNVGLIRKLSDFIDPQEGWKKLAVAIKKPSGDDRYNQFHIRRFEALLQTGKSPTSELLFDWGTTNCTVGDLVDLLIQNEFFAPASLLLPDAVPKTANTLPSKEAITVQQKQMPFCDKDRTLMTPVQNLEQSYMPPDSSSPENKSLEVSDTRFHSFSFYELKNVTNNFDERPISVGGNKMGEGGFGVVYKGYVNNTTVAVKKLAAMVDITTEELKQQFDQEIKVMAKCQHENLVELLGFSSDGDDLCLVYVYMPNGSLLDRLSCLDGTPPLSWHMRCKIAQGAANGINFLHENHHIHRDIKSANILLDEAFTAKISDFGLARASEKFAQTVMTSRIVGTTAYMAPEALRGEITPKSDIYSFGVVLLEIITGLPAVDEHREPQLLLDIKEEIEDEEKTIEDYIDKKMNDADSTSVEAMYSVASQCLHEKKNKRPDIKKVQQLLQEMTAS
Method in brief: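 IRAK-4 phosphorylation of RIP140 at Km ATP in Tris pH 7.5 buffer with Triton X-100, EGTA, MgCl2, DTT and MnCl2, 120 min at room temperature. ADP formed was measured by ADP-Glo luminescence. Ten-point, 5-fold dilutions (highest final 20 μM, automated format; 1% DMSO), normalised to staurosporine (100%) and DMSO (0%) controls.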

[1] = tested on: pooled cryopreserved hepatocytes; assay: Metabolic stability in hepatocytes (mouse); format: in vitro ADME; settings: 1 μM test compound
Method in brief: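 Test compound at 1 μM (0.03% DMSO) incubated with 0.5 million viable pooled cryopreserved hepatocytes/mL at 37° C with shaking; sampled 0–180 min. Parent loss measured by LC-MS/MS versus time-zero, and intrinsic clearance derived from percentage-remaining plots, scaled to L/h/kg and corrected for hepatocyte binding.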

Compound | IC50 (human IRAK-4) [nM] | Mouse (Perc. remaining at 90 min) [1] [%]
CC(C)(O)CCc1cn2cc(NC(=O)c3cccc(C(F)(F)F)n3)c(C(N)=O)cc2n1 [Compound 31, 2-(3-hydroxy-3-methyl-butyl)-6-[[6-(trifluoromethyl)pyridine-2-carbonyl]amino]imidazo[1,2-a]pyridine-7-carboxamide] | 0.1 to 5 | 96.5
COCCc1cn2cc(NC(=O)c3cccc(C(F)(F)F)n3)c(OC)cc2n1 [Compound 35, N-[7-methoxy-2-(2-methoxyethyl)imidazo[1,2-a]pyridin-6-yl]-6-(trifluoromethyl)pyridine-2-carboxamide] | 10 to 50 | 25.85
CCOc1c(NC(=O)c2cccn(C3CC3)c2=O)cn2cc(CCC(C)(C)O)nc2c1F [Compound 37, 1-cyclopropyl-N-[7-ethoxy-8-fluoro-2-(3-hydroxy-3-methyl-butyl)imidazo[1,2-a]pyridin-6-yl]-2-oxo-pyridine-3-carboxamide] | 0.1 to 5 | 103.5
COc1c(NC(=O)c2cccn(C3CC3)c2=O)cn2cc(CCC(C)(C)O)nc2c1F [Compound 42, 1-cyclopropyl-N-[8-fluoro-2-(3-hydroxy-3-methyl-butyl)-7-methoxy-imidazo[1,2-a]pyridin-6-yl]-2-oxo-pyridine-3-carboxamide] | 0.1 to 5 | 91.45
CC(C)(O)CCc1cn2cc(NC(=O)c3cccc(C(F)(F)F)n3)c(C(=O)NCC(F)F)cc2n1 [Compound 48, N-(2,2-difluoroethyl)-2-(3-hydroxy-3-methylbutyl)-6-(6-(trifluoromethyl)picolinamido)imidazo[1,2-a]pyridine-7-carboxamide] | 0.1 to 5 | 86
CCNC(=O)c1cc2nc(CCC(C)(C)O)cn2cc1NC(=O)c1cccc(C(F)(F)F)n1 [Compound 49, N-ethyl-2-(3-hydroxy-3-methylbutyl)-6-(6-(trifluoromethyl)picolinamido)imidazo[1,2-a]pyridine-7-carboxamide] | 0.1 to 5 | 87.15
